Source: article PMC8225200, “Epipregnanolone as a Positive Modulator of GABAA Receptor in Rat Cerebellar and Hippocampus Neurons” (Biomolecules, 2021)

Key:
Experiment in all cases: whole-cell patch clamp, GABA-induced chloride current
Assay type in all cases: cell-based
[1] = test system: T1, GABAA receptor (native, rat cerebellar Purkinje cells); conditions: positive allosteric modulator, 2 µM GABA co-applied, pH 7.4, holding -70 mV
T1 construct: gene Gabra1; native heteropentameric receptors in acutely isolated Purkinje neurons

[2] = test system: T1, GABAA receptor (native, rat cerebellar Purkinje cells); conditions: weak inhibition; 2 µM GABA co-applied; pH 7.4; holding -70 mV
[3] = test system: T2, GABAA receptor (native, rat hippocampal CA3 pyramidal neurons); conditions: positive allosteric modulator; 2 µM GABA co-applied; pH 7.4; holding -70 mV
T2 construct: gene Gabra1; native heteropentameric receptors in acutely isolated CA3 pyramidal neurons; subunit composition not determined

Q: With `CC(=O)[C@H]1CC[C@H]2[C@@H]3CC[C@H]4C[C@H](O)CC[C@]4(C)[C@H]3CC[C@]12C` [ALLO, 3α-hydroxy-5α-pregnan-20-one] as the compound, how does the EC50 ([1]; fit to rising phase of bell-shaped curve) read?
A: 0.29 ± 0.06 µM

Q: `CC(=O)[C@H]1CC[C@H]2[C@@H]3CC[C@H]4C[C@@H](O)CC[C@]4(C)[C@H]3CC[C@]12C` [Iso, 3β-hydroxy-5α-pregnan-20-one] was tested. Which “% of control current at 100 μM” value [2] did it give?
A: 84 ± 4%

Q: For `CC(=O)[C@H]1CC[C@H]2[C@@H]3CC[C@@H]4C[C@@H](O)CC[C@]4(C)[C@H]3CC[C@]12C` [Epi, 3β-hydroxy-5β-pregnan-20-one], which EC50 [1] is on record?
A: 5.7 ± 1.9 µM

Q: And the EC50 [3]?
A: 9.3 ± 2.9 µM
